Reference: a melting point compilation (Tetko et al.; mined from patent text by program, amines drawn as free bases though some values may be those of a salt)

melting point	SMILES
100 to 102 °C	O=Cc1cc(OCc2ccccc2)c(OCc2ccccc2)cc1Cl
51 to 53 °C	COc1ccc(OCC#CCCC(N)N2C(=O)c3ccccc3C2=O)cc1 (centres undefined)
87 to 88 °C	NC(=O)CCCSc1cccc(Br)n1
139 to 141 °C	CC(C)(C)OC(=O)Nc1ccc2ccc(C#N)cc2c1Br
229 to 230 °C	NS(=O)(=O)c1cc(C(=O)O)cc(NCc2ccc3c(c2)OCO3)c1Oc1ccccc1
178 to 180 °C	COC(=O)CCCCCCCCOC1OC(CO)C(O)C(O)C1NC(C)=O (centres undefined)
32 to 35 °C	CN(C(=O)c1cccc(F)c1[Si](C)(C)C)C(C)(C)C
123 to 131 °C	CCOC(=O)c1ccc(NCC=Cc2ccccc2)cc1
174 to 178 °C	CNC(=O)Nc1ccc(F)cc1Cl
56 to 58 °C	COC(=O)CN(N)c1cc(C)cc(C)c1
86 °C	CCN(CC)C(=O)c1ccc(Cl)c(C2(C)C(=O)N(Cc3ccc(OC)cc3OC)c3ccc(Cl)cc32)c1 (centres undefined)
203 to 210 °C	O=C(Nc1nc(-c2ccco2)c(C(=O)C2CCSCC2)s1)c1ccncc1
91 to 93 °C	Cc1ccncc1NC(=O)OC(C)(C)C
88 to 90 °C	Cc1ccc([N+](=O)[O-])c(Oc2cc(C(F)(F)F)nn2C)c1
151 to 153 °C	O=C(O)C1Oc2cc(Cl)c(S(=O)(=O)c3cccc(Cl)c3)cc2O1 (centres undefined)
214 °C	c1ccc(-c2nnc3cc(N4CCOCC4)c(OCc4ccccn4)nn23)cc1
132 to 135 °C	CC(C)Nc1cc(Cl)nnc1NN
77.1 °C	CCCc1cccc(-c2nc(C)cc(Cl)n2)n1
97.9 to 98.5 °C	CCc1ccc(Nc2c(C(=O)NN)ccc(F)c2F)c(F)c1
91 °C	CCN1C(=O)C(OC(=O)C(C)(C)C)=C(c2c(C)cc(C)cc2C)C1=O
172 to 173 °C	N#Cc1cccc(CSc2nnc(-c3ccc4[nH]ncc4c3)o2)c1
196 to 197 °C	COc1ccc2c(c1)C(Cc1ccnc(F)c1)(Cc1ccnc(F)c1)c1cccnc1O2
211 to 213 °C	COc1ccccc1C1C(C(=O)c2ccc(C)cc2)=C(O)C(=O)N1c1ccc(C)nn1 (centres undefined)
54 to 57 °C	COc1ccc2cc(CN(C)C(=O)c3oc4ccccc4c3CCc3ccccc3)ccc2c1Br
79 to 83 °C	O=C(CC1CCCCCC1)Nc1cn(CCO)c2cccc(Cl)c12

melting point	SMILES
138 to 140 °C	CCc1nc(/C=C/c2cn(-c3ccccc3)nc2OCc2ccc(OCc3nc(-c4cccc(C#N)c4)oc3C)c(OC)c2)cs1
117 to 118 °C	COC1=CC(=O)C2=C(C1=O)C1C=CC2C1 (centres undefined)
39 to 40 °C	CCCCCCCCCN(O)C(=O)N(C)C
91 to 93 °C	CC(=O)CN1C(=O)c2ccccc2C12OCCO2
210 °C	O=C1COc2ccc(C#Cc3ccccn3)cc2N1
156 to 158 °C	COc1ccc(Cn2nc(-n3cnn(Cc4ccc(F)cc4)c3=O)cc2C(=O)NCc2ccc(F)c(F)c2)cc1
43 to 45 °C	COC(=O)c1cc2c(OC(C)C)cccc2o1
190 °C	COc1ccc(-n2c(-c3ccc(N(C)C)cc3)nnc2C(C)O)cc1 (centres undefined)
100 to 101 °C	NC(=O)c1cccc(OCCF)c1OCCF
162 to 164 °C	O=C1CCC(c2cc(F)c(OC3CCN(C4CCC4)CC3)c(F)c2)=NN1
278 to 280 °C	O=C1CC(Nc2cc([N+](=O)[O-])ccc2Cl)=NN1c1c(Cl)cc(Cl)cc1Cl
115 to 116 °C	CNC(=O)N(N=Cc1ccccc1)c1nnc(C(C)(C)C)s1
135 to 137 °C	CCCCCCC1OC(=O)c2cc(NC(C)=O)ccc21 (centres undefined)
99 to 101 °C	CC(C)CCC1(c2ccccc2)CC(O)=C(Sc2ccccc2C(=O)O)C(=O)O1 (centres undefined)
233 to 234 °C	O=[N+]([O-])c1ccc(S(=O)(=O)n2c3cc(O)c(O)cc3c3ccc(O)c(O)c32)cc1
176 to 178 °C	CC(C)(C)OC(=O)N1CCC(c2ccc(Nc3nc4c(-c5cnn(-c6ccc(F)cc6)c5)cccn4n3)cc2)CC1
87 to 89 °C	CCOC(=O)C1=C(C)N=C(SCc2ccc(OC)cc2)N(C(=O)OCC)C1c1ccccc1SC (centres undefined)
112 to 114 °C	COc1ccccc1C(=O)N1CCN(C(=O)CN2CCC(O)(c3ccccc3)CC2)C(c2ccc(Cl)c(Cl)c2)C1 (racemic)
117 to 118 °C	CC(=O)NCCCCCC(=O)NC[C@@H]1CN2C(=O)C[C@H]2O1 (racemic)
79 to 80.5 °C	N#CCC1CC(c2ccccc2)=NO1 (centres undefined)
143 to 146 °C	COC(=O)C1(C)CN(C(=O)Nc2ccc(C(F)(F)F)cc2)N=C1c1ccc(Cl)cc1 (centres undefined)
121 °C	Cn1cncc1C(O)(c1ccc(F)cc1)c1ccc2c(c1)C(c1cccc(Cl)c1)Nc1nnnn1-2 (centres undefined)
128 °C	c1cn2nc(N3CCCC3)c3c(c2n1)CCCC3
96 to 100 °C	O=C(O)CCc1cc2cc(Cl)ccc2n1S(=O)(=O)c1ccc2ncsc2c1
78 to 78.5 °C	C=CCC(CO)(NC)c1ccc(Cl)c(Cl)c1 (centres undefined)

melting point	SMILES
125 to 126 °C	O=[N+]([O-])c1cc(CS(=O)(=O)CCO)ccc1CS(=O)(=O)CCO
83 to 84.5 °C	CN1C(=O)Cc2ccccc21
89 to 91 °C	COc1ccc(S(=O)(=O)C2(C(=O)O)CCCC2)cc1
106 to 107 °C	CCC(C)(C)c1cc(C(=O)COc2ccc(C=O)cc2OC)cc(C(C)(C)CC)c1O
154 to 156 °C	CCOc1cc(C(CS(C)(=O)=O)N2C(=O)c3cccc(NC(=O)COCc4ccccc4)c3C2=O)ccc1OC (centres undefined)
168 to 170 °C	CCOC(=O)CNc1cc(Cl)nc(NCc2ccc(Cl)cc2)n1
182 to 184 °C	O=C(O)CCn1ccn([C@H]2CCc3c(F)cc(F)cc3C2)c1=S
228 to 230 °C	CCc1nnc(-c2ccc(-c3ccccc3)cc2)n1-c1cccc2cnccc12
158 to 160 °C	CC(=O)OC1C(OC(=O)c2ccc(N)cc2)C=C(C)C(=O)CC1(C)C (centres undefined)
125 to 126 °C	O=C(/C=C/c1ccc(S(=O)(=O)N2CCN(C(c3ccc(F)cc3)c3ccc(F)cc3)CC2)cc1)NO
173 to 174 °C	CN(c1cccc2cc(C3=NCC(CC(=O)N4CCOCC4)S3)[nH]c12)S(=O)(=O)c1cccs1 (centres undefined)
76 to 77 °C	CCSC(=O)Cc1csc(N)n1
104 °C	CC(C)c1ccc2c(c1)[C@H]1Cc3ccccc3[C@H]1N2 (relative stereo)
96 to 98 °C	FC(F)(F)C(F)(F)C(F)(F)C(F)(F)C(F)(F)C(F)(F)C(F)(F)C(F)(F)C(F)(F)C(F)(F)C(F)(F)Br
203 to 205 °C	Cn1c(COc2ccc(CC3SC(=O)NC3=O)cc2)nc2cc(Cl)cnc21 (centres undefined)
156 to 158 °C	O=C1CCCc2sc(-c3ccncc3)cc21
249 °C	Cc1cc2cc(CN3CCC(CC(N)=O)CC3)cnc2cc1NC(=O)c1ccc(-c2ccc(F)cc2)cc1
161 to 163 °C	CSc1c(CC(C)(C)C(=O)O)n(Cc2ccc(Cl)cc2)c2ccc(F)cc12
139 °C	O=c1n(Cc2ccc([N+](=O)[O-])cc2)c2ccc(Cl)cc2n1C1CCCCC1
147 to 148 °C	CCN1C(=O)c2cnc(-c3ccccc3)nc2N(C(=O)CCl)c2ccccc21
165 °C	FC(F)(F)c1nc2ccc(Cn3ccnc3)cc2n1CC1CCCCC1
231 to 234 °C	CC(=O)N(C(C)=O)c1cc2c(cc1C)N(C(C)=O)c1ccc(N(C)C)cc1N2C(C)=O
69 to 70 °C	CS(=O)(=O)N(Cc1cccnc1)c1ccc(OCC(F)(F)F)cc1
190 to 191 °C	O=C(NC1CCCCC1)NS(=O)(=O)c1ccc2c(c1)CCN(C(=O)N1CCOCC1)CC2
141 to 143 °C	CCCC(=O)c1cc(C(=O)C(=O)OC(=O)C(=O)c2cc(C(=O)CCC)c(C)cc2NCC)c(NCC)cc1C

melting point	SMILES
149 °C	CCCC1CCC(c2ccc(-c3ccc(N=C=S)cc3)cc2)CC1 (centres undefined)
163 °C	COc1ccc(-c2ccccc2-c2c(Cl)nc3ncnn3c2Cl)c(Cl)c1
275 to 280 °C	CSc1cc(SC)c2ccc3c(SC)cc(SC)c4ccc1c2c43
225 to 227 °C	COc1cc(N2C(=O)c3ccccc3C2=O)c2nc(Cl)cc(C)c2c1Oc1cccc(C(F)(F)F)c1
> 280 °C	Nc1nc2c([nH]c(=S)n2Cc2cccs2)c(=O)[nH]1
210 to 212 °C	O=C(Nc1ccc(OC(F)(F)F)cc1)N[C@H]1CC[C@@H](Oc2ccc(C(=O)O)cc2)CC1
147 to 149 °C	O=C(CCCCN1CCC(Cc2ccccc2)CC1)c1ccc2c(c1)Cc1cc(C(=O)CCCCN3CCC(Cc4ccccc4)CC3)ccc1-2
159 to 160 °C	CN(C)C(=O)CC(=O)c1ccc(C(=O)CC(=O)C(C)(C)C)cc1
138 to 140 °C	CC(C)(C)C(=O)c1ccc(C(N)=O)cc1
206 to 208 °C	O=C(O)CCN1C(=O)c2ccc([N+](=O)[O-])cc2C1=O
196 to 200 °C	O=Cc1c[nH]c2cccc(O)c12
106 °C	O=C(c1ccc([N+](=O)[O-])c(O)c1)N1CCOCC1
184 to 185 °C	COc1cnc(C(=O)O)cc1OC1CCCC1
118 to 120 °C	Oc1ccc2c(c1)CCC(NCC(O)COc1cccc3ccccc13)C2 (centres undefined)
244 to 247 °C	CCc1c2nc(-c3cc(S(C)(=O)=O)ccc3OCC(C)C)[nH]c(=O)c2nn1Cc1cccnn1
47 to 49 °C	Cc1cc(N(C)C)ccc1Br
186 °C	CCN(C(=O)Nc1ccccc1)c1cccc(-c2ccc(CC3SC(=O)NC3=O)cc2)c1 (centres undefined)
85 to 87 °C	CCOC(=O)Cc1cc(O)ccc1F
163 to 165 °C	Cc1cccc(-n2nc(Sc3ccc(Cl)cc3)c(C)c(C#N)c2=O)c1
> 280 °C	NC(C(=O)O)c1cc(O)cc(O)c1[N+](=O)[O-] (centres undefined)
128 to 130 °C	CCN(CC)c1ccc(S(=O)(=O)N2CCCC2=O)cc1
85 °C	COc1ccc(C(=[N+]=[N-])c2ccc(OC)cc2)cc1
191 to 195 °C	O=C(O)CC1(c2ccc(Cl)c(Cl)c2)CNC(=O)C1 (centres undefined)
123 to 125 °C	CCCc1nnc2ccc(-c3ccccc3)nn12
